Results as given in the NIST ThermoML archive (doi:10.1021/acs.jced.8b00488).
± gives the expanded uncertainty stated by the source.

Conditions: Liquid, Ebulliometric method (Recirculating still)

| vapor or sublimation pressure (374.12 K) | Structure (SMILES) | vapor or sublimation pressure (329.33 K) |
| --- | --- | --- |
| – | CC(C)=O [acetone] | 101.3 ± 0.8 kPa |
| 101.3 ± 0.8 kPa | C[Si](C)(C)O[Si](C)(C)C [hexamethyldisiloxane] | – |
